Source: patent US11208400B2, “Substituted 6-(1H-pyrazol-1-yl)pyrimidin-4-amine derivatives and uses thereof” (Bayer Aktiengesellschaft, priority 2016, dated 2021)

Molecular target: T1, human Npt2a (Homo sapiens, UniProt Q06495)
T1 construct: expressed in transfected cells
T1 sequence (Q06495 1-639): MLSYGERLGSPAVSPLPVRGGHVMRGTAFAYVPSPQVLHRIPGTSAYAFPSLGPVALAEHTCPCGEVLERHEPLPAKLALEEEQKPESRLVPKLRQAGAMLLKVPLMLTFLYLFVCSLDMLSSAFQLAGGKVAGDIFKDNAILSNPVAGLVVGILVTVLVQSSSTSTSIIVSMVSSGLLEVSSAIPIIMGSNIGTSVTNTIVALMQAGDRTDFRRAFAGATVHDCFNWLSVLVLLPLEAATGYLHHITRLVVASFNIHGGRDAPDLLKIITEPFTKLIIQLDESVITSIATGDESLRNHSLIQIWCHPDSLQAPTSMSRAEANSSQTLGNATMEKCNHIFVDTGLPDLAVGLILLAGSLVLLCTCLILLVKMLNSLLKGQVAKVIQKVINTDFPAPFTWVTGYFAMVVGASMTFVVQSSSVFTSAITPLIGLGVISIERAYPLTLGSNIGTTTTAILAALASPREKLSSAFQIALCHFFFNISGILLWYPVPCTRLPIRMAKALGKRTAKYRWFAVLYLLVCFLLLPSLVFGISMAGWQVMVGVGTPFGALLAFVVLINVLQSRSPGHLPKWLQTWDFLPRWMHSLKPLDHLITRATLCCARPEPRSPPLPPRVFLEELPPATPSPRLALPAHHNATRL
Assay: Npt2a activity cell based assay, membrane potential dye, CHO T-REx hNpt2a cells
Details: doxycycline-induced, depolarization by sodium phosphate influx, average or median values if tested more than once
Procedure: For measuring Npt2a activity in a cell based assay, a stable CHO cell line with inducible Npt2a expression was generated. Therefore, CHO T-Rex cells (life technologies cat. R718-07) were stably transfected with doxycycline-inducible human NPT2a (pcDNA5TO-hNpt2a). The obtained CHO T-REx hNpt2a cells were routinely cultured in Dulbecco's MEM/F12 (4.5 g/l Glucose, Gibco cat. 21331-020; 500 mL) supplemented with 10 ml Glutamax 100×, Sodium pyruvate (7 mL of 100 mM solution), HEPES (10 mL of 1 M solution), Sodium bicarbonate (10 mL of 7.5% solution), 10% Fetal Bovine Serum Tetracycline free (Clontech cat. 631106, 500 ml), Penicillin-Streptomycin (5 mL of 100× Solution), Blasticidin 10 μg/mL and 400 μg/mL Hygromycin.
Activity of Npt2a was detected by following depolarization of cellular membrane potential by influx of sodium phosphate using fluorescent membrane potential dye kit BLUE (Molecular devices cat. R8034). For Npt2a activity measurements, CHO T-Rex hNpt2a cells were seeded into 1536 well microtiter plates (GREINER Bio-One cat. 782092) with 750 cells/well in 7 μL/w of complete medium (2% Tetracycline-free FBS, 2% Poly-D-Lysine) without selective agents+Doxycycline 0.5 μg/mL to induce Npt2a gene expression, and grown for 24 h at 37° C., 5% carbon dioxide.
On the day of experiment a 1×MPdye Loading Solution was freshly prepared by re-suspending 15 mg of Blue MPdye powder in 10 mL of NHE buffer sodium-free (140 mM N-Methyl-D-glucamine, 5.4 mM KCl, 1 mM CaCl2, 11 mM D(±)-Glucose water free, 1.2 mM MgCl2, 10 mM HEPES; pH 7.4 (adjusted with hydrochloric acid); sterile filtered). 5 μl medium was removed from plates by robotic manipulation, then 5 μL/well of sodium-free NHE buffer was added. After incubation for 2 min, this washing step was repeated once. Then, 5 μL/w of buffer was removed from plates and cells were incubated for 5 min at room temperature with 5 μL/w of MPdye Loading Solution (1× in Sodium-free NHE Buffer). Test compounds were added to the cells at final test concentrations between 50 μM and 1 nM (0.6 μL/well, final DMSO 0.6%, prepared in MPDye Loading Solution) and incubated for 5 min at room temperature.
Plates were analyzed with an in house CCD camera device using a λexc 510-545 nm/λem 565-625 nm filter. Fluorescence was detected for 15 sec (background measurement M1). Activity of Npt2a was triggered by addition of 2 μL/well of 30 mM Na+ and 1 mM phosphate (prepared in a mixture of NHE Buffer Na+ free and NHE Buffer 140 mM Na+). Fluorescence was followed for 2-3 min (depolarization measurement M2). Data was normalized to cell number and dye loading efficiency by calculating M2/M1. This quotient was plotted against test compound concentration. Graph Pad Prism or equivalent in house software was used to create sigmoidal dose-response curves (variable slope) and determine IC50 values.

Compound | IC50
Cc1ccc(-c2nn(CC3CC3)c(Nc3cc(-n4nc(C)c(C(F)(F)F)c4C)ncn3)c2C)cn1 [Example 455, N-[1-(cyclopropylmethyl)-4-methyl-3-(6-methylpyridin-3-yl)-1H-pyrazol-5-yl]-6-[3,5-dimethyl-4-(trifluoromethyl)-1H-pyrazol-1-yl]pyrimidin-4-amine] | 165 nM
Cc1cc(C(F)F)n(-c2cc(Nc3c(C)c(-c4ccc(C(F)F)nc4)nn3C)ncn2)n1 [Example 481, 6-[5-(difluoromethyl)-3-methyl-1H-pyrazol-1-yl]-N-{3-[6-(difluoromethyl)pyridin-3-yl]-1,4-dimethyl-1H-pyrazol-5-yl}pyrimidin-4-amine] | 1400 nM
Cc1nn(-c2cc(Nc3c(C)c(-c4ccc(Cl)cc4)nn3CC3CC3)ncn2)c(C)c1C(C)(C)O [Example 347, 2-[1-(6-{[3-(4-chlorophenyl)-1-(cyclopropylmethyl)-4-methyl-1H-pyrazol-5-yl]amino}pyrimidin-4-yl)-3,5-dimethyl-1H-pyrazol-4-yl]propan-2-ol] | 23 nM
CCOC(=O)c1c(C)nn(-c2cc(Nc3nn(C)c(-c4ccc(C#N)cc4)c3C)ncn2)c1C [Example 299, ethyl 1-(6-{[5-(4-cyanophenyl)-1,4-dimethyl-1H-pyrazol-3-yl]amino}pyrimidin-4-yl)-3,5-dimethyl-1H-pyrazole-4-carboxylate] | 5 nM
Cc1nn(-c2cc(Nc3c(C)c(-c4ccc(F)cc4)nn3CC3CC3)ncn2)c(C)c1OC(=O)N(C)C [Example 520, 1-(6-{[1-(cyclopropylmethyl)-3-(4-fluorophenyl)-4-methyl-1H-pyrazol-5-yl]amino}pyrimidin-4-yl)-3,5-dimethyl-1H-pyrazol-4-yl dimethylcarbamate] | 1600 nM
Cc1cc(C)n(-c2cc(Nc3c(C)c(-c4ccc(F)cc4)nn3CC(O)C3CC3)ncn2)n1 (single isomer, unassigned) [Example 370, 1-cyclopropyl-2-[5-{[6-(3,5-dimethyl-1H-pyrazol-1-yl)pyrimidin-4-yl]amino}-3-(4-fluorophenyl)-4-methyl-1H-pyrazol-1-yl]ethanol] | 2400 nM
CCOC(=O)c1c(C)nn(-c2cc(Nc3c(Cl)c(-c4ccc(F)cc4)nn3CC3CC3)ncn2)c1C [Example 158, ethyl 1-(6-{[4-chloro-1-(cyclopropylmethyl)-3-(4-fluorophenyl)-1H-pyrazol-5-yl]amino}pyrimidin-4-yl)-3,5-dimethyl-1H-pyrazole-4-carboxylate] | 4 nM
Cc1cc(C(F)F)n(-c2cc(Nc3nn(C)c(-c4ccc(F)cc4)c3Cl)ncn2)n1 [Example 346, N-[4-chloro-5-(4-fluorophenyl)-1-methyl-1H-pyrazol-3-yl]-6-[5-(difluoromethyl)-3-methyl-1H-pyrazol-1-yl]pyrimidin-4-amine] | 4 nM
Cc1nn(-c2cc(Nc3c(C)c(C45C6C7C4C4C5C6C74C#N)nn3CC3CC3)ncn2)c(C)c1Cl (stereo not drawn) [Example 513, 4-[5-{[6-(4-chloro-3,5-dimethyl-1H-pyrazol-1-yl)pyrimidin-4-yl]amino}-1-(cyclopropylmethyl)-4-methyl-1H-pyrazol-3-yl]cubane-1-carbonitrile] | 7 nM
CCc1c(Nc2cc(-n3nc(C)c4ccncc43)ncn2)nn(C)c1-c1ccc(F)cc1 [Example 168, N-[4-ethyl-5-(4-fluorophenyl)-1-methyl-1H-pyrazol-3-yl]-6-(3-methyl-1H-pyrazolo[3,4-c]pyridin-1-yl)pyrimidin-4-amine] | 15 nM
Cc1nn(-c2cc(Nc3c(C)c(-c4ccc(OC(F)(F)F)cc4)nn3C)ncn2)c(C)c1C(C)(C)O [Example 377, 2-{1-[6-({1,4-dimethyl-3-[4-(trifluoromethoxy)phenyl]-1H-pyrazol-5-yl}amino)pyrimidin-4-yl]-3,5-dimethyl-1H-pyrazol-4-yl}propan-2-ol] | 205 nM
Cc1nn(-c2cc(Nc3c(C)c(-c4ccc(OC(F)(F)F)cc4)nn3CC3CC3)ncn2)c(C(C)(C)O)c1Cl [Example 290, 2-{4-chloro-1-[6-({1-(cyclopropylmethyl)-4-methyl-3-[4-(trifluoromethoxy)phenyl]-1H-pyrazol-5-yl}amino)pyrimidin-4-yl]-3-methyl-1H-pyrazol-5-yl}propan-2-ol] | 170 nM
Cc1cc(C)n(-c2cc(Nc3c(C)c(-c4ccc(C(F)F)cc4)nn3C)ncn2)n1 [Example 407, N-{3-[4-(difluoromethyl)phenyl]-1,4-dimethyl-1H-pyrazol-5-yl}-6-(3,5-dimethyl-1H-pyrazol-1-yl)pyrimidin-4-amine] | 29 nM
Cc1nn(-c2cc(Nc3nn(C)c(-c4ccc(F)cc4)c3C)ncn2)c(C)c1F [Example 267, 6-(4-fluoro-3,5-dimethyl-1H-pyrazol-1-yl)-N-[5-(4-fluorophenyl)-1,4-dimethyl-1H-pyrazol-3-yl]pyrimidin-4-amine] | 27 nM
CC(=O)c1c(C)nn(-c2cc(Nc3nn(C)c(-c4ccc(F)cc4)c3C)ncn2)c1C [Example 113, 1-[1-(6-{[5-(4-fluorophenyl)-1,4-dimethyl-1H-pyrazol-3-yl]amino}pyrimidin-4-yl)-3,5-dimethyl-1H-pyrazol-4-yl]ethanone] | 32 nM
COC(C)c1c(C)nn(-c2cc(Nc3nn(C)c(-c4ccc(F)cc4)c3C)ncn2)c1C (single isomer, unassigned) [Example 345, N-[5-(4-fluorophenyl)-1,4-dimethyl-1H-pyrazol-3-yl]-6-{4-[1-methoxyethyl]-3,5-dimethyl-1H-pyrazol-1-yl}pyrimidin-4-amine] | 7 nM
CCOC(=O)Cc1c(C)nn(-c2cc(Nc3nn(C)c(-c4ccc(F)cc4)c3CC)ncn2)c1C [Example 87, ethyl [1-(6-{[4-ethyl-5-(4-fluorophenyl)-1-methyl-1H-pyrazol-3-yl]amino}pyrimidin-4-yl)-3,5-dimethyl-1H-pyrazol-4-yl]acetate] | 32 nM
Cc1nn(-c2cc(Nc3c(C)c(-c4ccc(F)cc4)nn3CC3CC3)ncn2)c(C)c1CC1(O)CC1 [Example 287, 1-{[1-(6-{[1-(cyclopropylmethyl)-3-(4-fluorophenyl)-4-methyl-1H-pyrazol-5-yl]amino}pyrimidin-4-yl)-3,5-dimethyl-1H-pyrazol-4-yl]methyl}cyclopropanol] | 5 nM
Cc1nn(-c2cc(Nc3nn(CC4CC4)c(-c4ccc(F)cc4)c3Cl)ncn2)c(C)c1Cl [Example 183, N-[4-chloro-1-(cyclopropylmethyl)-5-(4-fluorophenyl)-1H-pyrazol-3-yl]-6-(4-chloro-3,5-dimethyl-1H-pyrazol-1-yl)pyrimidin-4-amine] | 930 nM
CCc1c(Nc2cc(-n3nc(C)cc3C(F)F)ncn2)nn(C)c1-c1ccc(F)cc1 [Example 64, 6-[5-(difluoromethyl)-3-methyl-1H-pyrazol-1-yl]-N-[4-ethyl-5-(4-fluorophenyl)-1-methyl-1H-pyrazol-3-yl]pyrimidin-4-amine] | 6.25 nM
COC(C)c1c(C)nn(-c2cc(Nc3nn(C)c(-c4ccc(F)cc4)c3C)ncn2)c1C (single isomer, unassigned) [Example 344, N-[5-(4-fluorophenyl)-1,4-dimethyl-1H-pyrazol-3-yl]-6-{4-[1-methoxyethyl]-3,5-dimethyl-1H-pyrazol-1-yl}pyrimidin-4-amine] | 5 nM
